# Measured values as given in patent US6440437B1, “Wet wipes having skin health benefits” (Kimberly-Clark Worldwide, Inc., priority 2000, dated 2002).
# Tested on: EpiDerm™ skin model (Epi-200)
# Test: EpiDerm skin model: barrier against trypsin and IL-1α pro-inflammatory response
# Type: cell-based, human
# Details: 15 microliters formulation 30 min before 10 microliters of 200 μg/ml trypsin; media assayed by ELISA after 6 hours
# Procedure: The EpiDerm™ skin model (Epi-200, Mattek Corporation, Ashland, Mass.) was used to assess the ability of the lipid-enriched wet wipe formulations to enhance skin barrier against permeation of trypsin (a skin irritating, fecal enzyme) and prevent a Interleukin-1α (IL-1α) response which is a measure of inflammation.
# Test formulations (15 microliters) were added to the surface of the EpiDerm™ skin model and incubated for 30 minutes at 37° C., 5% CO2 prior to dosing with the fecal enzyme, trypsin. The study was conducted using Epi-200 assay media devoid of hydrocortisone and pH indicator that was prepared by the manufacturer. After 30 minutes, the underlying media was removed and replaced with fresh, pre-warmed media followed by application of 10 microliters of 200 μg/ml of trypsin. The skin wells were incubated for 6 hours before the underlying media was removed and stored for further analysis. […] Also, the amount of IL-1α in the media was measured using commercially available ELISA kits (Quantikine™ Human IL-1α Immunoassay, R&D Systems, Minneapolis, Minn.) specific for IL-1α to assess the ability of the formulations to prevent a pro-inflammatory response by the enzyme compared to the no treatment control.
substance,measurement,value
trypsin,"Irritation: Pro-inflammatory Response (IL-1α), Average IL-1α",108.7
